From ChEMBL document CHEMBL1148075, “Hamacanthins A and B, new antifungal bis indole alkaloids from the deep-water marine sponge, Hamacantha sp” (1994)
Converted amounts (≈) assume the structure as drawn.

Key:
Assay type in all cases: functional
Cryptococcus neoformans = test: Antifungal activity against Cryptococcus neoformans ATCC 32045 after 48 hrs by broth microdilution method; settings: ATCC 32045, 48 h
Bacillus subtilis = test: Antimicrobial activity against Bacillus subtilis ATCC 6633 after 24 hrs by broth microdilution method; settings: ATCC 6633, 24 h
Candida albicans = test: Antifungal activity against Candida albicans ATCC 44506 after 24 hrs by broth microdilution method; settings: ATCC 44506, 24 h

| MIC (Cryptococcus neoformans) [µg/mL] | MIC (Bacillus subtilis) [µg/mL] | MIC (Candida albicans) [µg/mL] | SMILES |
| --- | --- | --- | --- |
| 3.1 (≈ 6.38 µM) | 3.1 (≈ 6.38 µM) | 1.6 (≈ 3.29 µM) | O=C1N[C@@H](c2c[nH]c3cc(Br)ccc23)CN=C1c1c[nH]c2cc(Br)ccc12 [HAMACANTHIN A] |
| 6.2 (≈ 12.8 µM) | 1.6 (≈ 3.29 µM) | 6.2 (≈ 12.8 µM) | O=C1NC[C@H](c2c[nH]c3cc(Br)ccc23)N=C1c1c[nH]c2cc(Br)ccc12 [HAMACANTHIN B] |
